IC50 data for 86 molecules are collected here from PubChem BioAssay AID2305 (GlaxoSmithKline (GSK), 2010).

Usually IC50 stands for the concentration that gives 50% inhibition. Higher therefore signals a need for much substance.

In this assay the test system is P. falciparum 3D7 growth, pLDH absorbance. The assay can be described thus: P. falciparum 3D7 growth inhibition, dose response, strain 3D7 (AID 2305).

Values joined by “and” are separate entries in the source; they are usually repeats but may differ in a detail not shown here. Equal entries are not always repeated.

Consider `COc1cc(NC(=O)c2cccs2)c(C(=O)NCc2ccc(C)cc2)cc1OC`, for which the IC50 worked out at 1360 nM.
The figure for `O=c1cc(NCCC(CNCc2cc3ccccc3o2)NCc2cc(Br)cc(Br)c2)[nH]c2ccccc12` (stereo unspecified) is 1210 nM.
The figure for `O=C(NCCN1CCCC1)c1ccc(-c2cccc(-c3nc4ccc(F)cc4[nH]3)c2)cc1` is 770 nM.
The figure for `Cc1cc(NC(c2ccc(Cl)cc2)c2ccc3cccnc3c2O)no1` (stereo unspecified) is 1090 nM; for `CC(C)CCNCc1ccc(OCc2cccc(C(=O)Nc3ccccc3)c2)c(I)c1` it is 290 nM.
In turn, `Oc1cccc(-c2nc(-c3ccccc3)c(-c3ccc4oc5ccc(-c6[nH]c(-c7cccc(O)c7)nc6-c6ccccc6)cc5c4c3)[nH]2)c1` yielded a 50% inhibitory concentration (IC50) of 790 nM.
As for `CCOc1ccc(C(Cc2ccccc2)NC(=O)c2cccnc2)cc1OCC` (stereo unspecified), the IC50 is 770 nM.
The molecule `CN(C)Cc1ccc(-c2cc3c(-c4ccc(CN(C)C)cc4)ccnc3[nH]2)cc1` had an IC50 of 890 nM.
The figure for `Cc1cc(-c2cccc(CNC3CCN(C)CC3)c2)ccc1S(=O)(=O)NCCN1CCCC1` is 980 nM.
In turn, `Nc1c2c(nc3ccc(Oc4ccc(Br)cc4Br)cc13)CCCC2` returned a 50% inhibitory concentration (IC50) of 860 nM.
The molecule `C#Cc1cccc(NC(=O)[C@H](CC2CCCCC2)Nc2ccc(C#N)c3ccccc23)c1` yielded an IC50 of 590 nM.
The figure for `CCC(CC)CN1C(=O)C(c2ccccc2)(c2ccccc2)N=C1N` is 970 nM; for `COc1ccc(NC(=O)c2c(NC(=O)c3cccs3)sc3c2CCCC3)cc1` it is 450 nM.
The figure for `CS(=O)(=O)Nc1ccc(-c2ccc3ccnc(N)c3c2)cc1` is 610 nM; for `CCCCNCCOc1ccc(-c2nc(-c3ccccc3)c(-c3ccccc3)[nH]2)cc1` it is 680 nM.
`N#Cc1cccc(NC(=O)Nc2ccc3c(c2)CCN(C2CCC2)CC3)c1` registered an IC50 of 840 nM.
The figure for `COc1cc(F)c2nccc([C@@H](O)CN3CCC(NCc4nc5c(F)cccc5[nH]4)CC3)c2c1` is 850 nM; for `CC(C)CNC(=O)c1ccnc(-c2ccc(CNC3Cc4ccccc4C3)cc2)c1` it is 790 nM; for `CC(=O)Nc1ccc2[nH]cc(C3CCN(CCC4CCN(C(=O)/C=C/c5ccc(Cl)c(Cl)c5)CC4)CC3)c2n1` it is 520 nM.
The result for `COc1ccc(CNCc2ccc(F)cc2)cc1-c1ccc(S(=O)(=O)NCCN2CCCC2)s1` reads 710 nM.
`Oc1ccc(CCNc2nc(N/N=C/c3ccc(Cl)cc3)nc(N3CCNCC3)n2)cc1` came in with a concentration for half-maximal inhibition (IC50) of 580 nM.
The result for `CC(C)NCc1ccc(-c2cccc(NC(=O)c3ccc(F)cc3)c2)cc1` reads 880 nM.
`O=C(Nc1ccc(Cl)cc1)c1ccc(CN2CCCN(Cc3cccc(Cl)c3)CC2)cc1` came in with a half-inhibitory concentration (IC50) of 830 nM.
`CCn1c(-c2nonc2N)nc2c(-c3cccc(NC(=O)Nc4ccc(Cl)cc4)c3)ncc(OCCCN)c21` registered an IC50 of 830 nM.
The figure for `N#Cc1ccc(-c2nc3c(N4CCCC4)cccc3n2CCNCc2ccccc2)cc1` is 590 nM; for `Cc1ccc(CC(C)NCC(O)c2cccc(Cl)c2)cc1` (stereo unspecified) it is 930 nM.
The figure for `CN(C)CCOc1ccc2[nH]c(-c3cccc(OCc4ccccc4)c3)nc2c1C#N` is 260 nM.
Turning to `OC(CNCc1cccc(Oc2ccc(Cl)cc2)c1)c1cc(C(F)(F)F)cc(C(F)(F)F)c1` (stereo unspecified), the IC50 was determined as 260 nM.
Consider `COc1cccc(CNC(=O)c2cccc(-c3ccc(CN4CCC(N5CCCC5)CC4)cc3)n2)c1`, for which the IC50 came out at 1790 nM.
As to `CON(CCCN(C)C)C(=N)N`, the IC50 is 1080 nM.
The figure for `O=C(Nc1ccnc(N2C[C@H]3C[C@@H]2CN3Cc2cccc(O)c2)c1)c1ccc(F)cc1` is 1240 nM.
Consider `O=C(NCCSCc1c(F)cccc1Cl)c1cnc2c(c1)nc(-c1cnc(-c3ccccc3)[nH]1)n2CCc1cnc[nH]1`, for which the half-maximal inhibitory concentration (IC50) turned out to be 810 nM.
The result for `Cc1cccc2[nH]c(-c3ccc(-c4ccc(CN5CCN(c6cnccn6)CC5)cc4)s3)nc12` reads 750 nM; that for `CCCCCN1CCCC(NS(=O)(=O)c2ccc(C(=O)Nc3ccc(C(F)(F)F)cc3)cc2)C1` (stereo unspecified), 1630 nM.
`COc1ccc(CNCc2ccccc2)cc1-c1ccc(S(=O)(=O)NCCN2CCCC2)c(F)c1` yielded an IC50 of 1140 nM.
In turn, `COc1cc(C(=O)N2CCOC(CCN3CCc4c(c5ccccc5n4C)C3)(c3ccc(Cl)c(Cl)c3)C2)cc(OC)c1OC` (stereo unspecified) yielded an IC50 of 360 nM.
On to `O=C(Nc1ccc(-c2cccc(-c3nc4ccc(F)cc4[nH]3)c2)cc1)c1ccncc1`, for which the IC50 stood at 720 nM.
The result for `Cc1nc2ccc(Nc3nccc(-c4c(-c5cccc(NC(=O)c6c(F)cccc6F)c5)nn5ccccc45)n3)cc2nc1C` reads 1070 nM; that for `CN1CCN(c2ccc(Nc3ncc(C#N)c(Nc4ccccc4C(N)=O)n3)cc2)CC1`, 40 nM; that for `O=C(/C=C/c1ccc(Cl)c(Cl)c1)NCCCCCN1CCC(NC(=O)Nc2cccc(Cl)c2)CC1`, 750 nM.
The figure for `Oc1cc(-c2nc(-c3ccccc3)[nH]c2-c2ccncc2)ccc1Cl` is 810 nM; for `COc1ccc(CN2CCN(C(=O)c3cccs3)CC2)c(O)c1` it is 840 nM.
The figure for `CC(C)(C)c1cc(C(=O)N2CCN(c3nccnc3C#N)CC2)n(Cc2ccccc2)n1` is 760 nM; for `CC(Cc1ccc(OCCCCOc2ccccc2)cc1)NCCC1CCCN1C` (stereo unspecified) it is 40 nM.
For `Cc1noc(-c2ccc3c(c2)CCN(CCC2CCC(NC(=O)/C=C/c4cccc(Cl)c4)CC2)CC3)n1` (stereo unspecified), the IC50 came to 1000 nM.
The figure for `Cc1nc2nc(N)nc(N)c2c(C)c1Cc1c(Cl)cccc1Cl` is 50 nM; for `O=C(Nc1ccc2c(c1)OCCO2)c1cc(-c2cccnc2)nc2ccc(Cl)cc12` it is 710 nM; for `O=C(Nc1ccc(Cl)cc1)c1cc(Cl)ccc1NC(=O)C1CCc2ccccc2O1` (stereo unspecified) it is 1790 nM.
The result for `CC(C)CC1(C(=O)OC(C)(C)C)CC(C(=O)OC(C)(C)C)C(c2cccs2)N1C(=O)c1ccc(C(C)(C)C)cc1` (stereo unspecified) reads 140 nM.
In turn, `Cc1noc(-c2ccc(N3CCC(C(=O)N4CCN(C(C)C)CC4)CC3)cc2)n1` displayed an IC50 of 1070 nM.
Molecule `COc1ccc(N2C(=O)C3C(C2=O)C2(C)c4ccccc4C3(C)c3ccccc32)c([N+](=O)[O-])c1` (stereo unspecified) showed an IC50 of 720 nM.
The result for `CN(Cc1ccncc1)C(Cc1ccccc1)C1CCN(Cc2ccc(O)c(Cl)c2)CC1` (stereo unspecified) reads 750 nM.
As to `CCOc1ccc2nc(C)cc(NN=Cc3cccc([N+](=O)[O-])c3)c2c1`, the IC50 was 660 nM.
The result for `COc1ccc(C=NNc2cc(C)nc3ccccc23)c2ccccc12` reads 750 nM; that for `COc1c(C2CCN(CCN3CCC(NC(=O)c4ccc(-c5ccc(C(F)(F)F)cc5)cc4)CC3)CC2)ccc2c1CCCC2`, 1360 nM; that for `N#Cc1cccc(Nc2nccc(NCC(O)c3ccc(C(F)(F)F)cc3)n2)c1` (stereo unspecified), 560 nM.
The figure for `FC(F)(F)c1ccc2nc(-c3ccc(-c4ccc(CNCCc5ccncc5)cc4)cc3)[nH]c2c1` is 130 nM; for `O=C(/C=C/c1ccc(Cl)c(Cl)c1)N1CCC(CCN2CCC(c3c[nH]c4cc5c(cc34)OCO5)CC2)CC1` it is 730 nM.
For the molecule `Cc1ccc(NC(=O)c2ccc(N3CCN(c4ccncc4)CC3)cn2)cc1F`, the IC50 was 1570 nM.
The figure for `CC[C@H]1CN2CC[C@H]1C[C@H]2[C@H](O)c1cc(N2CCCC2)nc2ccc(OC)cc12` is 40 nM.
In turn, `CC(C)(C)c1ccc(CNC(=O)/C=C/c2ccc(CNC3CCNCC3)cc2)cc1` came in with an IC50 of 1090 nM.
The result for `N#Cc1ccc2c(c1)CN(CCC1CCC(NC(=O)/C=C/c3c[nH]c4ccccc34)CC1)CC2` (stereo unspecified) reads 990 nM and 900 nM.
The result for `Cc1cc(N(C)C)nc(Nc2ccc(NC(=O)Nc3ccccc3)cc2)n1` reads 130 nM.
For the molecule `CNc1nc(NN=Cc2cc([N+](=O)[O-])c(Cl)cc2Cl)nc(Nc2cccc(C(F)(F)F)c2)n1`, the half-inhibitory concentration (IC50) was 730 nM.
The figure for `CCc1c(CCNCCCCCCNCCc2ccc(OC)c(OC)c2CC)ccc(OC)c1OC` is 730 nM; for `COc1ccc(N(c2nc(-c3cc(Cl)ccc3Cl)cs2)C2CCNCC2)cc1` it is 1090 nM.
For the molecule `Fc1cccc(C=NNc2ccnc3ccc(C(F)(F)F)cc23)c1`, the half-inhibitory concentration (IC50) was determined as 730 nM.
The molecule `COc1ccc(-c2cnc3[nH]cc(-c4ccc(CCC(=O)O)cc4)c3c2)cn1` yielded a 50% inhibitory concentration (IC50) of 770 nM.
`Cc1cc(NN=Cc2ccccc2[N+](=O)[O-])c2cc(F)ccc2n1` showed an IC50 of 660 nM.
The figure for `O=S(=O)(NC1CCN(c2ccnc3cc(Cl)ccc23)C1)c1ccc(F)cc1` (stereo unspecified) is 470 nM; for `COc1cccc2cc(C(=O)N[C@@H](CC(C)C)C(=O)N[C@H](/C=N/N3CCOC3=O)Cc3ccccc3)oc12` it is 690 nM; for `COc1ccc(Nc2cc(C)nc(NCc3ccc4c(c3)OCO4)n2)cc1` it is 770 nM.
The figure for `CNC(=O)c1ccc2[nH]cc(C3CCN(CC4CCN(C(=O)/C=C/c5ccc(Cl)c(Cl)c5)CC4)CC3)c2c1` is 1520 nM; for `COc1ccc(C2(CNCC(O)c3cccc([N+](=O)[O-])c3)CCCC2)cc1OC` (stereo unspecified) it is 890 nM; for `CC(Cc1ccc(COc2ccc(CC(CO)NCCc3cccc(Cl)c3)cc2)cc1)NCCc1cccc(Cl)c1` (stereo unspecified) it is 820 nM.
The result for `O=C(NCc1ccc(Cl)cc1)c1ccc(CN2CCCN(CC3CCCCC3)CC2)cc1` reads 1700 nM; that for `CN(CCCCNC(=O)c1ccc(-c2ccccc2)cc1)C1CCc2c(O)cccc2C1` (stereo unspecified), 720 nM.
Take `CN(C)CCn1c(=N)n(CC(O)c2ccc(Cl)c(Cl)c2)c2ccccc21` (stereo unspecified): the half-maximal inhibitory concentration (IC50) is 800 nM.
The figure for `Cc1cccc2[nH]c(-c3ccc(-c4cccc(CNCCCNS(C)(=O)=O)c4)s3)nc12` is 1020 nM; for `Fc1ccc2nc(-c3ccc(-c4cccc(CN5CCN(CCN6CCOCC6)CC5)c4)cc3)[nH]c2c1` it is 140 nM.
As to `O=C(Nc1ccc(Cl)cc1)N[C@H]1CCN(CCCCCNC(=O)[C@@H]2C[C@H]2c2ccc(Cl)c(Cl)c2)C1`, the half-maximal inhibitory concentration (IC50) is 870 nM.
The result for `CC(C)(C)c1ccc(CN2CCCCC(NC(=O)c3cc(-c4ccccc4Cl)cs3)C2)cc1` (stereo unspecified) reads 1120 nM; that for `O=C(NCc1cccc(F)c1)Nc1ccc(-c2cccc(-c3nc4ccccc4[nH]3)c2)cc1`, 890 nM; that for `COc1ccc(S(=O)(=O)NCCC2CCN(CCCCCNC(=O)C=Cc3ccc(Cl)c(Cl)c3)CC2)cc1`, 960 nM.
The result for `NC(=O)COc1cccc2c1CCN(CCN1CCC(NC(=O)c3ccc(-c4ccc(Cl)cc4)cc3)CC1)C2` reads 840 nM; that for `O=c1ccc(CNc2nc(NCCc3ccccc3)nc3cc(Cl)ccc23)c[nH]1`, 300 nM.
